Results taken from PubChem BioAssay (NCI).
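Method: 48-hour compound exposure of cells in 96-well plates, five concentrations, linear interpolation of endpoints. Here, GI50 denotes the concentration required for 50% inhibition of growth. TGI marks complete inhibition of growth.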

How the values were obtained:
Assay in all cases: DTP human tumour cell line panel, 48 h
[1] = system: HCT-116 colon
[2] = system: OVCAR-8 ovarian
[3] = system: SF-295 CNS
[4] = system: A549 NSCLC
[5] = system: HOP-62 NSCLC
[6] = system: SF-268 CNS
[7] = system: TK-10 renal
[8] = system: SK-OV-3 ovarian
[9] = system: ACHN renal
[10] = system: SR leukemia

COc1cc(OC)c2ssc3c(OC)cc(OC)c4ssc1c2-c43
TGI [1]: > 100 µM
TGI [2]: > 100 µM
TGI [3]: > 100 µM
TGI [4]: > 100 µM
TGI [5]: > 100 µM
TGI [6]: > 100 µM
TGI [7]: > 100 µM
TGI [8]: > 100 µM
TGI [9]: > 100 µM

O=Cc1ccc(-c2ccc(-c3nc4ccccc4[nH]3)cc2)s1
GI50 [1]: 18.4 µM
TGI [1]: 39 µM
GI50 [10]: 15.6 µM
TGI [10]: 98.7 µM
GI50 [2]: 26.2 µM
TGI [2]: 87.5 µM
GI50 [3]: 18.6 µM
TGI [3]: 55.5 µM
GI50 [4]: 40.4 µM
TGI [4]: > 100 µM
GI50 [5]: 16.1 µM
TGI [5]: 41.1 µM
GI50 [6]: 19.8 µM
TGI [6]: 48.3 µM
GI50 [7]: 23.5 µM
TGI [7]: 69.1 µM
GI50 [9]: 24.4 µM
TGI [9]: 67.1 µM

CC(C)N(C(=O)C1(C)CC1)C(C)C
TGI [1]: > 100 µM
TGI [2]: > 100 µM
TGI [3]: > 100 µM
TGI [4]: > 100 µM
TGI [5]: > 100 µM
TGI [6]: > 100 µM
TGI [8]: > 100 µM
TGI [9]: > 100 µM

COc1ccc2c(c1O)C(=O)C(CCC(=O)O)CC2 (stereo not given)
TGI [1]: > 100 µM
TGI [2]: > 100 µM
TGI [3]: > 100 µM
TGI [4]: > 100 µM
TGI [5]: > 100 µM
TGI [7]: > 100 µM
TGI [8]: > 100 µM
TGI [9]: > 100 µM

COc1cc2c(c(OC)c1O)-c1ccc(OC)c(=O)cc1[C@@H](NC(=O)C(F)(F)F)CC2
TGI [1]: > 40.8 µM
TGI [2]: > 100 µM
TGI [3]: > 100 µM
TGI [4]: > 100 µM
TGI [5]: 2.4 µM
TGI [6]: > 100 µM
TGI [7]: > 100 µM
TGI [8]: > 100 µM
TGI [9]: > 100 µM

CCSC(SCC)c1cc2c(cc1Br)OCO2
TGI [1]: 82.6 µM
TGI [2]: > 100 µM
TGI [3]: 72.1 µM
TGI [4]: > 100 µM
TGI [5]: > 100 µM
TGI [6]: > 100 µM
TGI [7]: > 100 µM
TGI [8]: 88.6 µM
TGI [9]: > 100 µM

COC(=O)C(Cc1cnc[nH]1)NC(=O)CNC(=O)CCCn1c(=O)c2c3ccccc3n(C)c2n2nnc(-c3ccccc3)c12 (stereo not given)
GI50 [1]: > 100 µM
TGI [1]: > 100 µM
GI50 [2]: > 100 µM
TGI [2]: > 100 µM
GI50 [3]: > 100 µM
TGI [3]: > 100 µM
GI50 [4]: > 100 µM
TGI [4]: > 100 µM
GI50 [5]: > 100 µM
TGI [5]: > 100 µM
GI50 [6]: > 100 µM
TGI [6]: > 100 µM
GI50 [7]: > 100 µM
TGI [7]: > 100 µM
GI50 [8]: > 100 µM
TGI [8]: > 100 µM
GI50 [9]: > 100 µM
TGI [9]: > 100 µM

COc1c2ccoc2cc2oc(=O)ccc12
TGI [1]: > 100 µM
TGI [10]: > 100 µM
TGI [2]: > 100 µM
TGI [3]: > 100 µM
TGI [4]: > 100 µM
TGI [5]: > 100 µM
TGI [6]: > 100 µM
TGI [7]: > 100 µM
TGI [9]: > 100 µM

Cc1cccc(-c2nn3c(c2-c2ccnc4ccc(C(N)=O)cc24)CCC3)n1
GI50 [1]: > 100 µM
TGI [1]: > 100 µM
GI50 [2]: > 100 µM
TGI [2]: > 100 µM
GI50 [3]: > 100 µM
TGI [3]: > 100 µM
GI50 [4]: > 100 µM
TGI [4]: > 100 µM
GI50 [5]: > 100 µM
TGI [5]: > 100 µM
GI50 [6]: > 100 µM
TGI [6]: > 100 µM
GI50 [7]: > 100 µM
TGI [7]: > 100 µM
GI50 [8]: > 100 µM
TGI [8]: > 100 µM
GI50 [9]: > 100 µM
TGI [9]: > 100 µM

COc1ccc(/C=C/C(=O)C(C)(C)CN2CCCCC2)cc1
TGI [1]: 30.8 µM
TGI [2]: 37.7 µM
TGI [3]: 97.5 µM
TGI [4]: 74.3 µM
TGI [5]: > 100 µM
TGI [6]: 59.8 µM
TGI [7]: 53.4 µM
TGI [8]: 61.7 µM
TGI [9]: 60.1 µM

COc1ccccc1/C=C/C(=O)c1c(O)cc2occc2c1OC
GI50 [1]: 40.4 µM
TGI [1]: > 100 µM
GI50 [2]: 53.8 µM
TGI [2]: > 100 µM
GI50 [3]: 16.6 µM
TGI [3]: 55.6 µM
GI50 [4]: > 100 µM
TGI [4]: > 100 µM
GI50 [5]: 19.3 µM
TGI [5]: 43.9 µM
GI50 [6]: 22.2 µM
TGI [6]: > 100 µM
GI50 [7]: 21.9 µM
TGI [7]: 62.7 µM
GI50 [8]: 21.3 µM
TGI [8]: 84.4 µM
GI50 [9]: 30 µM
TGI [9]: > 100 µM

COC(=O)NC1(NC(=O)OC)NC(=O)c2cc(OC)c(OC)cc2N1
TGI [1]: > 100 µM
TGI [10]: > 100 µM
TGI [2]: > 100 µM
TGI [3]: > 100 µM
TGI [4]: > 100 µM
TGI [5]: > 100 µM
TGI [6]: > 100 µM
TGI [7]: > 100 µM
TGI [9]: > 100 µM

O=c1[nH]cc(/C=N\Nc2ccccc2)c(=O)[nH]1
TGI [1]: > 100 µM
TGI [10]: > 100 µM
TGI [2]: > 100 µM
TGI [3]: > 100 µM
TGI [4]: > 100 µM
TGI [6]: > 100 µM
TGI [7]: > 100 µM
TGI [8]: > 100 µM
TGI [9]: > 100 µM

CCCCCCCCCCCCNC(=O)[C@H]1CSC(c2cc3ccccc3s2)N1 (stereo not given in full)
GI50 [1]: 1.06 µM
TGI [1]: 3.42 µM
GI50 [10]: 0.695 µM
TGI [10]: 1.85 µM
GI50 [2]: 2.23 µM
TGI [2]: 8.53 µM
GI50 [3]: 3.52 µM
TGI [3]: 8.33 µM
GI50 [4]: 6.01 µM
TGI [4]: 11.3 µM
GI50 [5]: 0.732 µM
TGI [5]: 1.55 µM
GI50 [7]: 1.27 µM
TGI [7]: 4.88 µM
GI50 [8]: 4.16 µM
TGI [8]: 8.38 µM
GI50 [9]: 4.9 µM
TGI [9]: 9.29 µM

COc1cc(Br)c(CC2(C#N)c3ccccc3C3C(N2C(=O)c2ccccc2)C3(Cl)Cl)cc1OC (stereo not given)
TGI [1]: > 65.5 µM
TGI [10]: > 65.5 µM
TGI [2]: > 65.5 µM
TGI [4]: > 65.5 µM
TGI [6]: > 65.5 µM
TGI [7]: > 65.5 µM
TGI [8]: > 65.5 µM
TGI [9]: > 65.5 µM

COc1ccccc1-c1cc(/C=C2\C(=O)Nc3ncc(Br)cc32)cc(Br)c1O
GI50 [1]: 10.2 µM
TGI [1]: > 25 µM
GI50 [2]: > 19.1 µM
TGI [2]: > 25 µM
GI50 [3]: 10.5 µM
TGI [3]: > 25 µM
GI50 [4]: 11.8 µM
TGI [4]: > 25 µM
GI50 [5]: 22.7 µM
TGI [5]: > 25 µM
GI50 [6]: 11.1 µM
TGI [6]: > 25 µM
GI50 [7]: 9.95 µM
TGI [7]: > 25 µM
GI50 [8]: > 21.3 µM
TGI [8]: > 25 µM
GI50 [9]: 11.7 µM
TGI [9]: > 25 µM

CCOC(=O)C(Cc1c[nH]c2ccc([N+](=O)[O-])cc12)(NC(C)=O)C(=O)OCC
GI50 [1]: 139 µM
TGI [1]: > 1000 µM
GI50 [2]: 96.7 µM
TGI [2]: > 870 µM
GI50 [3]: 30.5 µM
TGI [3]: > 1000 µM
GI50 [4]: 67.3 µM
TGI [4]: > 1000 µM
GI50 [5]: 304 µM
TGI [5]: > 606 µM
GI50 [6]: 188 µM
TGI [6]: > 1000 µM
GI50 [7]: 186 µM
TGI [7]: > 1000 µM
GI50 [8]: 184 µM
TGI [8]: > 907 µM
GI50 [9]: 151 µM
TGI [9]: > 1000 µM

O=C1OC(c2ccccc2)=N/C1=C\c1ccc2ccccc2c1
TGI [1]: > 100 µM
TGI [2]: > 100 µM
TGI [4]: > 100 µM
TGI [6]: > 100 µM
TGI [7]: > 100 µM
TGI [8]: > 100 µM
TGI [9]: > 100 µM
